According to PubChem BioAssay AID2060497 (Molecular Pharmacology Branch, DTP, NCI, 2025):

System: 317291-083-R-J1-PDC complex spheroids, viability
Test: Anticancer human tumor 317291-083-R-J1-PDC patient-derived soft tissue sarcoma cell line growth inhibition [GQUAD]
Conditions: for IC50: curve of first compound; for viability, T/C: stronger effect = lower value
How it was run: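 Viability of tumor cells grown as complex spheroids with endothelial and stromal cells, exposed to drug combinations. Top concentration at or near clinical Cmax (else 10 microM), diluted in half-log increments.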

[1] = second compound 0.0316 µM, first compound 0.0316 µM
[2] = second compound 0.0316 µM, first compound 0.1 µM
[3] = second compound 0.0316 µM, first compound 0.316 µM
[4] = second compound 0.0316 µM, first compound 1 µM
[5] = second compound 0.0316 µM, first compound 3.16 µM
[6] = second compound 0.0316 µM, first compound 10 µM
[7] = second compound 0.1 µM, first compound 0.0316 µM
[8] = second compound 0.1 µM, first compound 0.1 µM
[9] = second compound 0.1 µM, first compound 0.316 µM
[10] = second compound 0.1 µM, first compound 1 µM
[11] = second compound 0.1 µM, first compound 3.16 µM
[12] = second compound 0.1 µM, first compound 10 µM
[13] = second compound 0.316 µM, first compound 0.0316 µM
[14] = second compound 0.316 µM, first compound 0.1 µM
[15] = second compound 0.316 µM, first compound 0.316 µM
[16] = second compound 0.316 µM, first compound 1 µM
[17] = second compound 0.316 µM, first compound 3.16 µM
[18] = second compound 0.316 µM, first compound 10 µM
[19] = second compound 1 µM, first compound 0.0316 µM
[20] = second compound 1 µM, first compound 0.1 µM
[21] = second compound 1 µM, first compound 0.316 µM
[22] = second compound 1 µM, first compound 1 µM
[23] = second compound 1 µM, first compound 3.16 µM
[24] = second compound 1 µM, first compound 10 µM
[25] = second compound 3.16 µM, first compound 0.0316 µM
[26] = second compound 3.16 µM, first compound 0.1 µM
[27] = second compound 3.16 µM, first compound 0.316 µM
[28] = second compound 3.16 µM, first compound 1 µM
[29] = second compound 3.16 µM, first compound 3.16 µM
[30] = second compound 3.16 µM, first compound 10 µM
[31] = second compound 10 µM, first compound 0.0316 µM
[32] = second compound 10 µM, first compound 0.1 µM
[33] = second compound 10 µM, first compound 0.316 µM
[34] = second compound 10 µM, first compound 1 µM
[35] = second compound 10 µM, first compound 3.16 µM
[36] = second compound 10 µM, first compound 10 µM
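Further: spheroids exposed to compounds for one week before readout.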
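Wherever viability, T/C is given: percent viability relative to DMSO vehicle wells taken as 100%.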

## CC1COCCN1c1cc(C2(O)CC3CCC(C2)O3)c2cnn(-c3ccn[nH]3)c2n1 (centres undefined) + Cc1cnc(CNC(=O)c2c(=O)c3ccc(N4CCCN(C)CC4)nc3n3c2sc2ccccc23)cn1
Second compound 0.0316 µM
  IC50: < 31.6 nM
Second compound 0.1 µM
  IC50: < 31.6 nM
Second compound 0.316 µM
  IC50: < 31.6 nM
Second compound 1 µM
  IC50: < 31.6 nM
Second compound 3.16 µM
  IC50: < 31.6 nM
Second compound 10 µM
  IC50: < 31.6 nM
[1]
  viability, T/C: 32.1%
[2]
  viability, T/C: 22.9%
[3]
  viability, T/C: 11.1%
[4]
  viability, T/C: 10.5%
[5]
  viability, T/C: 13%
[6]
  viability, T/C: 3.33%
[7]
  viability, T/C: 25.9%
[8]
  viability, T/C: 22.6%
[9]
  viability, T/C: 10.6%
[10]
  viability, T/C: 11.6%
[11]
  viability, T/C: 28.6%
[12]
  viability, T/C: 2.82%
[13]
  viability, T/C: 18.4%
[14]
  viability, T/C: 16.2%
[15]
  viability, T/C: 26.7%
[16]
  viability, T/C: 11.9%
[17]
  viability, T/C: 11.1%
[18]
  viability, T/C: 2.89%
[19]
  viability, T/C: 25.6%
[20]
  viability, T/C: 18.5%
[21]
  viability, T/C: 12.9%
[22]
  viability, T/C: 12.1%
[23]
  viability, T/C: 11.7%
[24]
  viability, T/C: 5.12%
[25]
  viability, T/C: 14.8%
[26]
  viability, T/C: 14.6%
[27]
  viability, T/C: 11.1%
[28]
  viability, T/C: 12.7%
[29]
  viability, T/C: 15.6%
[30]
  viability, T/C: 0.73%
[31]
  viability, T/C: 12.7%
[32]
  viability, T/C: 9.14%
[33]
  viability, T/C: 16.9%
[34]
  viability, T/C: 24.7%
[35]
  viability, T/C: 12.1%
[36]
  viability, T/C: 2.17%

## CC1COCCN1c1cc(C2(S(C)(=N)=O)CC2)nc(-c2ccnc3[nH]ccc23)n1 (centres undefined) + Cc1[nH]c2ccc(F)cc2c1-c1nc2c3cccnc3c3ncccc3c2[nH]1
Second compound 0.0316 µM
  IC50: 1530 nM
Second compound 0.1 µM
  IC50: 1320 nM
Second compound 0.316 µM
  IC50: 1350 nM
Second compound 1 µM
  IC50: 1210 nM
Second compound 3.16 µM
  IC50: 792 nM
Second compound 10 µM
  IC50: 613 nM
[1]
  viability, T/C: 109%
[2]
  viability, T/C: 112%
[3]
  viability, T/C: 90.5%
[4]
  viability, T/C: 64%
[5]
  viability, T/C: 27.9%
[6]
  viability, T/C: 15.4%
[7]
  viability, T/C: 93.3%
[8]
  viability, T/C: 93.9%
[9]
  viability, T/C: 85.8%
[10]
  viability, T/C: 57.7%
[11]
  viability, T/C: 25.2%
[12]
  viability, T/C: 13.2%
[13]
  viability, T/C: 91.5%
[14]
  viability, T/C: 98.6%
[15]
  viability, T/C: 88.7%
[16]
  viability, T/C: 59%
[17]
  viability, T/C: 24.3%
[18]
  viability, T/C: 14.7%
[19]
  viability, T/C: 101%
[20]
  viability, T/C: 97.5%
[21]
  viability, T/C: 97.3%
[22]
  viability, T/C: 54.8%
[23]
  viability, T/C: 22.1%
[24]
  viability, T/C: 11.3%
[25]
  viability, T/C: 84%
[26]
  viability, T/C: 82.8%
[27]
  viability, T/C: 78%
[28]
  viability, T/C: 42.5%
[29]
  viability, T/C: 17.7%
[30]
  viability, T/C: 11%
[31]
  viability, T/C: 53%
[32]
  viability, T/C: 61.5%
[33]
  viability, T/C: 86.4%
[34]
  viability, T/C: 37.4%
[35]
  viability, T/C: 16.8%
[36]
  viability, T/C: 8.56%
